Assay results published in patent publication US20200216441A1, “PESTICIDALLY ACTIVE HETEROCYCLIC DERIVATIVES WITH SULFUR CONTAINING SUBSTITUENTS” (SYNGENTA PARTICIPATIONS AG, priority 2017, published 2020).

Legend:
[1] = test system: Euschistus heros (Neotropical Brown Stink Bug); assay: whole plant or invertebrate; format: in vivo; conditions: 120 h, application rate of 200 ppm, N2 nymphs on sprayed soybean leaves, 5 days after infestation, read-out: effect in at least one of the two categories (mortality or growth inhibition)
[2] = test system: Diabrotica Balteata (Corn Root Worm); assay: Diabrotica balteata (Corn Root Worm); conditions: in Zea mays, 96 h, read-out: effect in at least one of the two categories (mortality or growth inhibition)
[3] = test system: Myzus persicae (Green Peach Aphid); assay: whole plant or invertebrate; format: in vivo; conditions: 144 h, test rate of 24 ppm, systemic, roots of infested pea seedlings in test solution, 6 days
[4] = test system: Myzus persicae (Green Peach Aphid); assay: whole plant or invertebrate; conditions: foliar, 144 h
[5] = test system: Plutella xylostella (Diamond Back Moth); assay: whole plant or invertebrate; format: in vivo; conditions: 120 h, application rate of 200 ppm, L2 larvae on treated artificial diet, 5 days after infestation, read-out: effect in at least one of the two categories (mortality or growth inhibition)

Molecule `CCSc1cc(OC2COC2)cnc1-c1nc2cc(C(F)(F)F)ncc2n1C` [Compound P2, 2-[3-ethylsulfanyl-5-(oxetan-3-yloxy)-2-pyridyl]-3-methyl-6-(trifluoromethyl)imidazo[4,5-c]pyridine] has a percent effect (mortality or growth inhibition) at 200 ppm [1] of at least 80% and a mortality at 200 ppm [2] of at least 80%.

In the case of `CCS(=O)(=O)c1cc(OCCS(C)(=O)=O)cnc1-c1nc2cc(C(F)(F)F)ncc2n1C` [Compound P7, 2-[3-ethylsulfonyl-5-(2-methylsulfonylethoxy)-2-pyridyl]-3-methyl-6-(trifluoromethyl)imidazo[4,5-c]pyridine], the percent effect (mortality or growth inhibition) at 200 ppm [1] is reported as at least 80%, the mortality at 24 ppm [3] is reported as at least 80% and the mortality at 200 ppm [4] is reported as at least 80%.

`CCSc1cc(OC2(C)COC2)cnc1-c1nc2cc(C(F)(F)F)ncc2n1C` [Compound P14, 2-[3-ethylsulfanyl-5-(3-methyloxetan-3-yl)oxy-2-pyridyl]-3-methyl-6-(trifluoromethyl)imidazo[4,5-c]pyridine] showed a percent effect (mortality or growth inhibition) at 200 ppm [5] of at least 80% and a mortality at 200 ppm [2] of at least 80%.

Molecule `C#CCOc1cnc(-c2nc3cc(C(F)(F)F)ncc3n2C)c(SCC)c1` [Compound P17, 2-(3-ethylsulfanyl-5-prop-2-ynoxy-2-pyridyl)-3-methyl-6-(trifluoromethyl)imidazo[4,5-c]pyridine] has a mortality at 200 ppm [2] of at least 80%.

Molecule `CCSc1cc(OCC2CC2)cnc1-c1nc2cc(C(F)(F)F)ncc2n1C` [Compound P23, 2-[5-(cyclopropylmethoxy)-3-ethylsulfanyl-2-pyridyl]-3-methyl-6-(trifluoromethyl)imidazo[4,5-c]pyridine] has a percent effect (mortality or growth inhibition) at 200 ppm [5] of at least 80%, a mortality at 200 ppm [4] of at least 80% and a mortality at 200 ppm [2] of at least 80%.

With `CCSc1cc(OCC(C)(C)C)cnc1-c1nc2cc(C(F)(F)F)ncc2n1C` [Compound P25, 2-[5-(2,2-dimethylpropoxy)-3-ethylsulfanyl-2-pyridyl]-3-methyl-6-(trifluoromethyl)imidazo[4,5-c]pyridine] the percent effect (mortality or growth inhibition) at 200 ppm [5] was at least 80% and the mortality at 200 ppm [4] was at least 80%.

Work on `CCS(=O)(=O)c1cc(OC(SC)C(=O)N(C)C)cnc1-c1nc2cc(C(F)(F)F)ncc2n1C` (stereo not drawn) [Compound P36, 2-[[5-ethylsulfonyl-6-[3-methyl-6-(trifluoromethyl)imidazo[4,5-c]pyridin-2-yl]-3-pyridyl]oxy]-N,N-dimethyl-2-methylsulfanyl-acetamide] yielded a percent effect (mortality or growth inhibition) at 200 ppm [1] of at least 80%.

In the case of `CCS(=O)(=O)c1cc(OC(SC)C(=O)NC)cnc1-c1nc2cc(C(F)(F)F)ncc2n1C` (stereo not drawn) [Compound P37, 2-[[5-ethylsulfonyl-6-[3-methyl-6-(trifluoromethyl)imidazo[4,5-c]pyridin-2-yl]-3-pyridyl]oxy]-N-methyl-2-methylsulfanyl-acetamide], the percent effect (mortality or growth inhibition) at 200 ppm [1] is reported as at least 80% and the mortality at 200 ppm [4] is reported as at least 80%.

`CCS(=O)(=O)c1cc(OC(C(=O)N(C)C)S(C)(=O)=O)cnc1-c1nc2cc(C(F)(F)F)ncc2n1C` (stereo not drawn) [Compound P38, 2-[[5-ethylsulfonyl-6-[3-methyl-6-(trifluoromethyl)imidazo[4,5-c]pyridin-2-yl]-3-pyridyl]oxy]-N,N-dimethyl-2-methylsulfonyl-acetamide] was tested, and the mortality at 24 ppm [3] was at least 80%.

`CCSc1cc(OC(C#N)(CC)CC)cnc1-c1nc2cc(C(F)(F)F)ncc2n1C` [Compound P43, 2-ethyl-2-[[5-ethylsulfanyl-6-[3-methyl-6-(trifluoromethyl)imidazo[4,5-c]pyridin-2-yl]-3-pyridyl]oxy]butanenitrile] gave a percent effect (mortality or growth inhibition) at 200 ppm [1] of at least 80%.

In the case of `CCS(=O)(=O)c1cc(OCC(=O)N(C)C)cnc1-c1nc2cc(C(F)(F)F)ncc2n1C` [Compound P51, 2-[[5-ethylsulfonyl-6-[3-methyl-6-(trifluoromethyl)imidazo[4,5-c]pyridin-2-yl]-3-pyridyl]oxy]-N,N-dimethyl-acetamide], the percent effect (mortality or growth inhibition) at 200 ppm [1] is reported as at least 80% and the mortality at 24 ppm [3] is reported as at least 80%.

`CCS(=O)(=O)c1cc(OC(C)(C)C(=O)NC)cnc1-c1nc2cc(C(F)(F)F)ncc2n1C` [Compound P55, 2-[[5-ethylsulfonyl-6-[3-methyl-6-(trifluoromethyl)imidazo[4,5-c]pyridin-2-yl]-3-pyridyl]oxy]-N,2-dimethyl-propanamide] was tested, and the mortality at 24 ppm [3] was at least 80% and the mortality at 200 ppm [4] was at least 80%.

`CCS(=O)(=O)c1cc(OC(C)(C)C(=O)N(C)C)cnc1-c1nc2cc(C(F)(F)F)ncc2n1C` [Compound P59, 2-[[5-ethylsulfonyl-6-[3-methyl-6-(trifluoromethyl)imidazo[4,5-c]pyridin-2-yl]-3-pyridyl]oxy]-N,N,2-trimethyl-propanamide] showed a mortality at 24 ppm [3] of at least 80%.

Molecule `CCS(=O)(=O)c1cc(OC/C(C)=N/OC)cnc1-c1nc2cc(C(F)(F)F)ncc2n1C` [Compound P64, 1-[[5-ethylsulfonyl-6-[3-methyl-6-(trifluoromethyl)imidazo[4,5-c]pyridin-2-yl]-3-pyridyl]oxy]-N-methoxy-propan-2-imine] has a percent effect (mortality or growth inhibition) at 200 ppm [1] of at least 80%, a percent effect (mortality or growth inhibition) at 200 ppm [5] of at least 80% and a mortality at 200 ppm [4] of at least 80%.

`CCSc1cc(OC(C)(C)C(N)=O)cnc1-c1nc2cc(C(F)(F)F)ncc2n1C` [Compound P77, 2-[[5-ethylsulfanyl-6-[3-methyl-6-(trifluoromethyl)imidazo[4,5-c]pyridin-2-yl]-3-pyridyl]oxy]-2-methyl-propanamide] gave a percent effect (mortality or growth inhibition) at 200 ppm [1] of at least 80%.

For `CCS(=O)(=O)c1cc(OCc2cc(C3CC3)no2)cnc1-c1nc2cc(C(F)(F)F)ncc2n1C` [Compound P83, 3-cyclopropyl-5-[[5-ethylsulfonyl-6-[3-methyl-6-(trifluoromethyl)imidazo[4,5-c]pyridin-2-yl]-3-pyridyl]oxymethyl]isoxazole], the percent effect (mortality or growth inhibition) at 200 ppm [1] was at least 80%, the percent effect (mortality or growth inhibition) at 200 ppm [5] was at least 80% and the mortality at 200 ppm [2] was at least 80%.

`CCS(=O)(=O)c1cc(OS(=O)(=O)C(F)F)cnc1-c1nc2cc(C(F)(F)F)ncc2n1C` [Compound P91, [5-ethylsulfonyl-6-[3-methyl-6-(trifluoromethyl)imidazo[4,5-c]pyridin-2-yl]-3-pyridyl] difluoromethanesulfonate] showed a mortality at 200 ppm [2] of at least 80%.

In the case of `CCS(=O)(=O)c1cc(OS(C)(=O)=O)cnc1-c1nc2cc(C(F)(F)F)ncc2n1C` [Compound P93, [5-ethylsulfonyl-6-[3-methyl-6-(trifluoromethyl)imidazo[4,5-c]pyridin-2-yl]-3-pyridyl] methanesulfonate], the percent effect (mortality or growth inhibition) at 200 ppm [5] is reported as at least 80% and the mortality at 200 ppm [4] is reported as at least 80%.

For `CCS(=O)(=O)c1cc(OCc2ccccc2)cnc1-c1nc2cc(C(F)(F)F)ncc2n1C` [Compound P94, 2-(5-benzyloxy-3-ethylsulfonyl-2-pyridyl)-3-methyl-6-(trifluoromethyl)imidazo[4,5-c]pyridine], the mortality at 200 ppm [2] was at least 80%.

`C=CCOc1cnc(-c2nc3cc(C(F)(F)F)ncc3n2C)c(SCC)c1` [Compound P95, 2-(5-allyloxy-3-ethylsulfanyl-2-pyridyl)-3-methyl-6-(trifluoromethyl)imidazo[4,5-c]pyridine] gave a mortality at 200 ppm [2] of at least 80%.

For `CCS(=O)(=O)c1cc(OC(F)(F)CBr)cnc1-c1nc2cc(C(F)(F)F)ncc2n1C` [Compound P109, 2-[5-(2-bromo-1,1-difluoro-ethoxy)-3-ethylsulfonyl-2-pyridyl]-3-methyl-6-(trifluoromethyl)imidazo[4,5-c]pyridine], the percent effect (mortality or growth inhibition) at 200 ppm [5] was at least 80%.
